Data as given in the supplement of paper PMC10307832.

Tests used:
Assay in all cases: relative viability (nuclei count vs DMSO), 5 days (fraction); higher = more cells survive
[1] = compound: CC[C@H](C)N1C=C(C2=C(C=C(C=C21)C3=CN=C(C=C3)N4CCNCC4)C(=O)NCC5=C(C=C(NC5=O)C)C)C [GSK126] + Cc1nc(NC(=O)N2CCC[C@H]2C(N)=O)sc1-c1ccnc(C(C)(C)C(F)(F)F)c1 [Alpelisib] (partner 2 µM)
In short: (§1)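 Lung cancer cell lines in 1536-well plates got either a single drug or a fixed anchor-drug dose together with five library-drug doses (not always all listed) in √10 steps, by pin tool, on the day after seeding. Nuclei were counted after 5 days, and relative viability is the treated-to-vehicle ratio of nuclei counts. Values are medians of duplicate plates.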

[2] = compound: C1CC(C1)(C(=O)O)C(=O)O.[NH2-].[NH2-].[Pt+2] [Carboplatin] + CCNC(=O)c1noc(-c2cc(C(C)C)c(O)cc2O)c1-c1ccc(CN2CCOCC2)cc1 [Luminespib] (partner 0.01 µM)
In short: as §1

[3] = compound: NS(=O)(=O)OC[C@@H]1C[C@@H](n2ccc3c(N[C@H]4CCc5ccccc54)ncnc32)C[C@@H]1O [MLN4924] + C[C@@H](Oc1cc(-c2cnn(C3CCNCC3)c2)cnc1N)c1c(Cl)ccc(F)c1Cl [Crizotinib] (partner 1 µM)
In short: as §1

[4] = compound: C1CC(C1)(C(=O)O)C(=O)O.[NH2-].[NH2-].[Pt+2] [Carboplatin] + CC(=O)c1c(C)c2cnc(Nc3ccc(N4CCNCC4)cn3)nc2n(C2CCCC2)c1=O [Palbociclib] (partner 0.5 µM)
In short: as §1

## UMC-11
[1]; first compound 0.08 µM
  relative viability: 1.03
[1]; first compound 0.253 µM
  relative viability: 1.1
[1]; first compound 0.8 µM
  relative viability: 0.983
[1]; first compound 2.53 µM
  relative viability: 0.961
[1]; first compound 8 µM
  relative viability: 1.17
[2]; first compound 0.08 µM
  relative viability: 0.961
[2]; first compound 0.253 µM
  relative viability: 1.01
[2]; first compound 0.8 µM
  relative viability: 1
[2]; first compound 2.53 µM
  relative viability: 0.955
[2]; first compound 8 µM
  relative viability: 0.651
[3]; first compound 0.04 µM
  relative viability: 0.298
[3]; first compound 0.1265 µM
  relative viability: 0.184
[3]; first compound 0.4 µM
  relative viability: 0.234
[3]; first compound 1.265 µM
  relative viability: 0.0782
[3]; first compound 4 µM
  relative viability: 0.0855
[4]; first compound 0.08 µM
  relative viability: 0.314
[4]; first compound 0.253 µM
  relative viability: 0.348
[4]; first compound 0.8 µM
  relative viability: 0.275
[4]; first compound 2.53 µM
  relative viability: 0.301
[4]; first compound 8 µM
  relative viability: 0.339
